Laboratory results reported in patent US12589092B2, “Polycyclic compound acting as kinase inhibitor” (HANGZHOU INNOGATE PHARMA CO., LTD., priority 2020, dated 2026).
Like-named read-outs stand apart in the source and are kept apart here.

What was measured:
[1] = Pharmacokinetic study in rats (intragastrical administration, plasma LC-MS/MS); details: male, SD, rat, po, 3 mg/kg
Procedure: Instruments: XEVO TQ-S LC/MS instrument produced by Waters. All measurement data is collected and processed by Masslynx V4.1 software, and the data is calculated and processed by Microsoft Excel. Using WinNonLin 8.0 software, the statistical moment method was used to calculate the pharmacokinetic parameters. Mainly include kinetic parameters Tmax, T1/2, Cmax, AUClast etc. Column: ACQUITY UPLC BEH C18 (2.1 mm×50 mm, 1.7 μm); column temperature 40° C.; mobile phase A is water (0.1% formic acid), mobile phase B is acetonitrile, flow rate is 0.350 ml/min, gradient elution is adopted, the elution gradient is 0.50 min: 10% B; 1.50 min: 10% B; 2.30 min: 95% B; 2.31 min: 10% B; 3.00 min: stop. Injection volume: 5 μL.
Animals: 3 male SD rats with a weight range of 200-220 g. After purchase, they will be kept in the laboratory of the Experimental Animal Center for 2 days and then used. They will be fasted for 12 hours predose and 4 hours after dosing. Drinking water is free during the test. After the rats were gavage, blood samples were taken according to the established time point.
Solvent: 0.5% Methylcellulose (aqueous solution containing 0.4% Tween 80 and 1% ethanol). Preparation of the solution for intragastrical administration: accurately weigh the compound, add it to the solvent, and use ultrasound at room temperature for 5 minutes to completely dissolve the drug, and prepare a 0.3 mg/ml medicinal solution.
A single administration was also used to study the pharmacokinetics of the drug sample in rats.
After intragastrical administration, blood was taken from the orbit at 0.25, 0.5, 1, 2, 4, 9, 12 and 24 hours, and placed in a plastic centrifuge tube pretreated with sodium heparin. After centrifugation, the supernatant plasma was used for LC-MS/MS analysis.
Accurately weigh the compounds to prepare different concentrations, perform quantitative analysis on mass spectrometry to establish a standard curve, and then test the concentration of the above-mentioned compound in the plasma to obtain the compound concentration at different time points. All measurement data are collected and processed by relevant software, and the statistical moment method is used to calculate the pharmacokinetic parameters (mainly including kinetic parameters Tmax, T1/2, Cmax, AUClast etc).

CDK16/CycY = CDK16/CycY (Homo sapiens, UniProt Q00536); assay: CDK16 kinase activity inhibition assay (ADP-Glo); assay type: biochemical; details: read-out: CDK16 kinase inhibitory activity (IC50)
Procedure: (§1) 3) CDK5, CDK9 and CDK16 Kinase Activity Inhibition Assay
(§2) CDK5/p35NCK, CDK9/CycT1 and CDK16/CycY protein kinase activities were determined using the ADP-Glo Kinase Assay. Dilute the positive compound and the test compound (10 mM stock solution) 25-fold with 100% DMSO, make a 4-fold serial dilution in a 96-well dilution plate, and add 1 μL of the compound to 49 μL of kinase reaction buffer (1 mM Tris, 20 mM MgCl2, 0.10% BSA and 0.5 mM DTT) on a microplate shaker for 20 min. Transfer 2 μL of 2× kinase to the 384-well reaction plate, add 1 μL of the test compound to the 384-well reaction plate, centrifuge at 1000 rpm/min for 1 min, and incubate at 25° C. for 10 min. Transfer 1 μL of the 4× substrate mix to the 384-well reaction plate, centrifuge at 1000 rpm/min for 1 min, and incubate at 25° C. for 60 min. Transfer 4 μL of ADP-Glo to the 384-well reaction plate to centrifuge at 1000 rpm/min for 1 min, and incubate at 25° C. for 40 min. Transfer 8 μL of detection solution to the 384-well reaction plate to centrifuge at 1000 rpm/min for 1 min, and incubate at 25° C. for 40 min. The RLU (Relative luminescence unit) signal was read using a Biotek multifunctional plate reader. Signal intensity is used to characterize the degree of kinase activity. Compound inhibition rate data: % inhibition rate=[1−(compound mean RLU−positive control mean RLU)/(negative control mean RLU−positive control mean RLU)]*100. Taking the log value of the concentration as the X axis and the percentage inhibition rate as the Y axis, the log(inhibitor) vs. response-Variable slope of the analysis software GraphPad Prism 5 was used to fit the dose-response curve to obtain the IC50 value of each compound on the enzyme activity.

CDK6/cycD3 = CDK6/cycD3 (Homo sapiens, UniProt Q00534); assay: CDK6 kinase activity inhibition assay (caliper mobility shift); assay type: biochemical; details: CDK6/cycD3 15 nM, ATP 800 μM; read-out: CDK6 kinase inhibitory activity (IC50)
Procedure: (§3) 1) CDK2, CDK4 and CDK6 Kinase Activity Inhibition Assay
(§4) In vitro enzymatic activity of the CDK isoforms CDK2/CycA2, CDK4/CycD3 and CDK6/cycD3 were measured using caliper mobility shift assay. Dissolve the compounds in DMSO and dilute them with corresponding kinase buffer (CDK2/CycA2 and CDK6/CycD3 were assayed with buffer conditions of 50 mM HEPES (pH 7.5), 10 mM MgCl2, 0.0015% Brij-35 and 2 mM dithiothreitol; CDK4/CycD3 was assayed with buffer condition of 20 mM HEPES (pH 7.5), 10 mM MgCl2, 0.01% Triton X-100 and 2 mM dithiothreitol). Add 5 μl of compound (10% DMSO) with 5 times the final concentration of the reaction to a 384-well plate. […] Collect conversion data on Caliper EZ Reader II (Caliper Life Sciences). Convert the conversion rate into inhibition rate data (% inhibition rate=(max−conversion rate)/(max−min)*100). […] Draw a curve with the concentration and inhibition rate of the compound as abscissa and ordinate, and use XLFit excel add-in version 4.3.1 software to fit the curve and calculate IC50.

CDK9/CycT1 = CDK9/CycT1 (Homo sapiens, UniProt P50750); assay: CDK9 kinase activity inhibition assay (ADP-Glo); assay type: biochemical; details: read-out: CDK9 kinase inhibitory activity (IC50)
Procedure: as §1, §2

CDK4/CycD3 = CDK4/CycD3 (Homo sapiens, UniProt P11802); assay: CDK4 kinase activity inhibition assay (caliper mobility shift); assay type: biochemical; details: CDK4/CycD3 10 nM, ATP 221 μM; read-out: CDK4 kinase inhibitory activity (IC50)
Procedure: as §3, §4

TRKA = TRKA (Homo sapiens, UniProt P04629); assay: TRKA kinase activity inhibition assay (caliper mobility shift); assay type: biochemical
Procedure: 2) TRKA Kinase Activity Inhibition Assay
TRKA protein kinase activity was measured by caliper mobility shift assay. Compounds were dissolved in DMSO to make up 10 mM stock solutions. Prepare 1× kinase reaction buffer to serially dilute compounds. 250 nL 100× final concentration of the test compounds were transferred to destination plate 3573 by dispenser Echo 550. Prepare a 2.5× final concentration of kinase solution with 1× kinase buffer. Add 10 μL of 2.5× final kinase solution to compound wells and positive control wells; add 10 μL of 1× kinase buffer to negative control wells. Centrifuge at 1000 rpm for 30 s, shake and mix the reaction plate and incubate at room temperature for 10 min. Prepare a mixture of ATP and kinase substrate solution at 5/3× final concentration with 1× kinase buffer. The reaction was initiated by adding 15 μL of the mixed solution. Centrifuge the 384-well plate at 1000 rpm for 30 s, shake and mix well, and incubate at room temperature for the corresponding time. Add 30 μL of stop solution to stop the kinase reaction, centrifuge at 1000 rpm for 30 s, mix by shaking, and read the conversion rate data with Caliper EZ Reader. Convert conversion to inhibition data (% inhibition=(max DMSO well conversion−sample well conversion)/(max DMSO well conversion−min negative control conversion)*100). Wherein max refers to the conversion rate of the DMSO control, and min refers to the conversion rate of the non-enzymatic control. Draw a curve with the concentration and inhibition rate of the compound as abscissa and ordinate, and use XLFit excel add-in version 4.3.1 software to fit the curve and calculate IC50.

CDK5/p35NCK = CDK5/p35NCK (Homo sapiens, UniProt Q00535); assay: CDK5 kinase activity inhibition assay (ADP-Glo); assay type: biochemical; details: read-out: CDK5 kinase inhibitory activity (IC50)
Procedure: as §1, §2

CDK2/CycA2 = CDK2/CycA2 (Homo sapiens, UniProt P24941); assay: CDK2 kinase activity inhibition assay (caliper mobility shift); assay type: biochemical; details: CDK2/CycA2 12 nM, ATP 39 μM; read-out: CDK2 kinase inhibitory activity (IC50)
Procedure: as §3, §4

[2] = read-out: TRKA kinase inhibitory activity (IC50)

Sequence of CDK9/CycT1 (P50750 whole entry): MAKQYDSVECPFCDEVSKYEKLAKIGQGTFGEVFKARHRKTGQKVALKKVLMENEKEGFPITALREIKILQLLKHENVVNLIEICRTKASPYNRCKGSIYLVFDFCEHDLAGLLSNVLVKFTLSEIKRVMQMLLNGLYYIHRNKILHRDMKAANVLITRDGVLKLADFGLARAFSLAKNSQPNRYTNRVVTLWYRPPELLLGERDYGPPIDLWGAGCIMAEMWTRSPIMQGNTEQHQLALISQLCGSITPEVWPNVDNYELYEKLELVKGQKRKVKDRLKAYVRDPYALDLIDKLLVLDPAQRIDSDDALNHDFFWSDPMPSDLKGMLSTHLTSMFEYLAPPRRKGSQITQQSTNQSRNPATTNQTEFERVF
Sequence of CDK9/CycT1 (O60563 whole entry partner): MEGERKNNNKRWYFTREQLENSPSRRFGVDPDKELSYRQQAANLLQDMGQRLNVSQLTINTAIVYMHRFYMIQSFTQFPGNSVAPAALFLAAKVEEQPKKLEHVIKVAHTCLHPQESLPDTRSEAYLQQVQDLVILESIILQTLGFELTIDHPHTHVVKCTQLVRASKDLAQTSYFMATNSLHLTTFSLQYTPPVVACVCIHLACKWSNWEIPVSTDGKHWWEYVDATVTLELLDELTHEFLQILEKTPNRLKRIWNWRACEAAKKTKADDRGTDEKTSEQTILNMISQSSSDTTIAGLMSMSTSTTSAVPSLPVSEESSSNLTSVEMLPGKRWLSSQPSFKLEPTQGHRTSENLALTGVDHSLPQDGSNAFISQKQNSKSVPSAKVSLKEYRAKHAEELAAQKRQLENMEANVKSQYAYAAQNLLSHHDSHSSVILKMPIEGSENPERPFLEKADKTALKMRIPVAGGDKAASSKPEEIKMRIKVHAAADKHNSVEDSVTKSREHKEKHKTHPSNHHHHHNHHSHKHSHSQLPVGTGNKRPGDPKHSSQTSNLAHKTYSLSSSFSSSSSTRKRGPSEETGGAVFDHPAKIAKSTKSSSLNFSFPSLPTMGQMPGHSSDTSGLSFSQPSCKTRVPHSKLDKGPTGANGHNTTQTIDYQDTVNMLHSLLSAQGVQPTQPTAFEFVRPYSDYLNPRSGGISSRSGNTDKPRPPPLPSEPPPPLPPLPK
Sequence of CDK4/CycD3 (P11802 whole entry): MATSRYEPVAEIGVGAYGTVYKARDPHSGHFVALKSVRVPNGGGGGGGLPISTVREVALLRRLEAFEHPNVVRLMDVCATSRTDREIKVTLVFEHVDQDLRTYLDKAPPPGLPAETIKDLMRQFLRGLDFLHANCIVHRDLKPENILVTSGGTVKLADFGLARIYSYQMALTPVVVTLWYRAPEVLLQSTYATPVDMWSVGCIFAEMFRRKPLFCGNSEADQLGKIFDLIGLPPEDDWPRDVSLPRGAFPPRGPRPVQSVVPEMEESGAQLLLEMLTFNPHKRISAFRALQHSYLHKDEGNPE
Sequence of CDK4/CycD3 (P30281 whole entry partner): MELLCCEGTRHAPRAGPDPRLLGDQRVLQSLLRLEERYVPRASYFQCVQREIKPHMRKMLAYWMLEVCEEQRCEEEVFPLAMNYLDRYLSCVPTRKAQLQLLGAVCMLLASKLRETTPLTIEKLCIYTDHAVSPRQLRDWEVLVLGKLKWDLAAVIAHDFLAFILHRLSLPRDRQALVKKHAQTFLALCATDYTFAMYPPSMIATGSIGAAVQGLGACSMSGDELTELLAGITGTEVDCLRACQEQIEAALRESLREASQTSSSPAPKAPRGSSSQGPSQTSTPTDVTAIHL
Sequence of CDK16/CycY (Q00536 whole entry): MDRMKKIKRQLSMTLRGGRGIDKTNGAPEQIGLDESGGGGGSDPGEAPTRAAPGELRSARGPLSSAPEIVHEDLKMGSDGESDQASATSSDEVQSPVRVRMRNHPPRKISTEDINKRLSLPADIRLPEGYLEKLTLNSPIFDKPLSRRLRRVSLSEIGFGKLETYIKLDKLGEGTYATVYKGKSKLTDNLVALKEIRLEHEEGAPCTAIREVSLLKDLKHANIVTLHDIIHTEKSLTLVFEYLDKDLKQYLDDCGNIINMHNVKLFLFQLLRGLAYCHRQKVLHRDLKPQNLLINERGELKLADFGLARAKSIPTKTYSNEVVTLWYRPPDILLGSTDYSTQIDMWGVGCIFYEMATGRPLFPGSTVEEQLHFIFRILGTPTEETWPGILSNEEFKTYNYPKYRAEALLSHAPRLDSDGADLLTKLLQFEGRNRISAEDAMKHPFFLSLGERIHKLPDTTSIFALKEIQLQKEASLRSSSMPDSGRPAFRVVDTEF
Sequence of CDK16/CycY (Q8ND76 whole entry partner): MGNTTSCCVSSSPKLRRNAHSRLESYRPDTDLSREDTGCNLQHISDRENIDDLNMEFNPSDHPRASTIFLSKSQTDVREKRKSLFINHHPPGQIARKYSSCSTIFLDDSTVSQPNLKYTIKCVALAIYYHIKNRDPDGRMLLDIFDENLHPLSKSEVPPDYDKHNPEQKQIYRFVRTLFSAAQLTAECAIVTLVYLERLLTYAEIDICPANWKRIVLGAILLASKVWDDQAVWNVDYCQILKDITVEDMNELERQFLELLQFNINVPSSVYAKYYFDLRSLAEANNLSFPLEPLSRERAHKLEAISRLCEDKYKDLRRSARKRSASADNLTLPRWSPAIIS
Sequence of TRKA (P04629 33-796): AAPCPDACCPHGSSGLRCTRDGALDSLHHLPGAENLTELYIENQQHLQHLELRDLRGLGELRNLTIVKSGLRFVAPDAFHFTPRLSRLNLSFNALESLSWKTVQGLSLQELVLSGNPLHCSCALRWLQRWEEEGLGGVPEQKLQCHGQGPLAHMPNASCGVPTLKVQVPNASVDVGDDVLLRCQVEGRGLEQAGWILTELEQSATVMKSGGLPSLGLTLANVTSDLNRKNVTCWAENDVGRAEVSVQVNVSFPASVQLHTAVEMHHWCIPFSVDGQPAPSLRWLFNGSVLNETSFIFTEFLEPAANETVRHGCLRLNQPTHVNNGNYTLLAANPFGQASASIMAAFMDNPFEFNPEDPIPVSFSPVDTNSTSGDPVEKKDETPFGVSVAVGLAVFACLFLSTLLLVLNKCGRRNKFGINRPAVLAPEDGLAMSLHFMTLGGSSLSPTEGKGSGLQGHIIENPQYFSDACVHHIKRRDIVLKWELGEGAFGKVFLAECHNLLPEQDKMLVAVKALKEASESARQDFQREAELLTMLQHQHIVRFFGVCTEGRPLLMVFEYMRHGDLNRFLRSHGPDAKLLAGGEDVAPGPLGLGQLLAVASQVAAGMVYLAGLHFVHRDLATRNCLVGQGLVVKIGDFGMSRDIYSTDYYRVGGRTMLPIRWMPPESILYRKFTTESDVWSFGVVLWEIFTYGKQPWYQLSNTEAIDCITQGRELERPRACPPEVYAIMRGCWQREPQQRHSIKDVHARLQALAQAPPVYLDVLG
Sequence of CDK6/cycD3 (Q00534 whole entry): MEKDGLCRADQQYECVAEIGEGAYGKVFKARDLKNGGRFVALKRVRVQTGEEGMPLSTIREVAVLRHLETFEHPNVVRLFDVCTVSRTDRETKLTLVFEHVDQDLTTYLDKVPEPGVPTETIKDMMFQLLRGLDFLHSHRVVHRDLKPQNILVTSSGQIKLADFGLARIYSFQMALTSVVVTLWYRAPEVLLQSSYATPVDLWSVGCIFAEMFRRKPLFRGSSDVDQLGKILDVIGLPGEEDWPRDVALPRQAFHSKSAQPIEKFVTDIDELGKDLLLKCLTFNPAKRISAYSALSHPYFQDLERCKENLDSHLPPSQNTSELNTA
Sequence of CDK6/cycD3 (P30281 whole entry partner): as the sequence (P30281 whole entry partner) above
Sequence of CDK5/p35NCK (Q00535 whole entry): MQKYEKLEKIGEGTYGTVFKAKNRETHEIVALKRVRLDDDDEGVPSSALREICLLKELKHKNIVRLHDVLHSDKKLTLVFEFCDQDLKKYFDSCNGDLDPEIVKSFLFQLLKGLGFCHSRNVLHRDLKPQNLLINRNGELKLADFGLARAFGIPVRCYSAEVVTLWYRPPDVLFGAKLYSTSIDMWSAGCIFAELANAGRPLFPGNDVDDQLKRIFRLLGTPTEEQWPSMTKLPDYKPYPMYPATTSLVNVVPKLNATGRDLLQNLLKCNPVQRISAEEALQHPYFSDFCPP
Sequence of CDK5/p35NCK (Q15078 whole entry partner): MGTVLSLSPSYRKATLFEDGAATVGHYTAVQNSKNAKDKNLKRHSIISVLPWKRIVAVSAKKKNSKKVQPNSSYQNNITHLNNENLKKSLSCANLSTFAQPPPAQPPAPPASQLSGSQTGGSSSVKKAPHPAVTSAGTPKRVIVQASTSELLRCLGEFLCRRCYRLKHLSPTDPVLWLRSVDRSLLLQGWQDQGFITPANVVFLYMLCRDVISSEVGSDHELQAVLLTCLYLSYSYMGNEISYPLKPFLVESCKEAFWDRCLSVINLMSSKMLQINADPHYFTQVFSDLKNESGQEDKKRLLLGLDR

Row | Structure (SMILES) | AUC(0-t) [1] | Cmax [1] | Tmax [1] | half-life [1] | IC50 (CDK16/CycY) | IC50 (CDK6/cycD3) | IC50 (CDK9/CycT1) | IC50 (CDK4/CycD3) | IC50 (TRKA; [2]) | IC50 (CDK5/p35NCK) | IC50 (CDK2/CycA2) | IC50 (TRKA)
1 | CC(=O)c1c(C)c2cnc(Nc3ccc4c(c3)OC[C@H]3CN(C5CCOCC5)CCN43)nc2n(C2CCCC2)c1=O [Compound 1R] | 274 ng·h/mL | 43.4 ng/mL | 2 h | 2.96 h | < 100 nM | < 20 nM | < 50 nM | < 10 nM | < 10 nM | < 100 nM | < 100 nM | –
2 | CC(=O)c1c(C)c2cnc(Nc3ccc4c(c3)OC[C@@H]3CN(C5CCOCC5)CCN43)nc2n(C2CCCC2)c1=O [Compound 1S] | 192 ng·h/mL | 37.3 ng/mL | 3 h | 6.41 h | – | < 20 nM | – | < 10 nM | – | – | < 100 nM | –
3 | CC(=O)c1c(C)c2cnc(Nc3ccc4c(c3)OC[C@H]3CN(C5CCN(C)CC5)CCN43)nc2n(C2CCCC2)c1=O [Compound 2R] | – | – | – | – | – | < 10 nM | – | < 10 nM | – | – | < 100 nM | < 10 nM
4 | CC(=O)c1c(C)c2cnc(Nc3ccc4c(c3)OC[C@H]3CN(C5CCNCC5)CCN43)nc2n(C2CCCC2)c1=O [Compound 3R] | – | – | – | – | – | < 10 nM | – | < 10 nM | – | – | < 100 nM | –
5 | CC(=O)c1c(C)c2cnc(Nc3ccc4c(c3)OC[C@@H]3CN(C5CCNCC5)CCN43)nc2n(C2CCCC2)c1=O [Compound 3S] | 1230 ng·h/mL | 85.7 ng/mL | 5.33 h | 5.68 h | < 50 nM | < 10 nM | < 20 nM | < 10 nM | < 10 nM | < 100 nM | < 100 nM | –
6 | CCN1CCC(N2CCN3c4ccc(Nc5ncc6c(C)c(C(C)=O)c(=O)n(C7CCCC7)c6n5)cc4OC[C@@H]3C2)CC1 [Compound 4S] | 3770 ng·h/mL | 250 ng/mL | 12 h | 10.7 h | < 100 nM | < 10 nM | < 20 nM | < 10 nM | < 10 nM | < 100 nM | < 100 nM | –
7 | CC(=O)c1c(C)c2cnc(Nc3ccc4c(c3)OC[C@@H]3CN(C5CCN(C(C)=O)CC5)CCN43)nc2n(C2CCCC2)c1=O [Compound 5S] | 2480 ng·h/mL | 266 ng/mL | 6 h | 2.18 h | – | < 10 nM | – | < 10 nM | – | – | < 100 nM | –
8 | CC(=O)c1c(C)c2cnc(Nc3ccc4c(c3)OC[C@@H]3CN(C5CCN(C6CC6)CC5)CCN43)nc2n(C2CCCC2)c1=O [Compound 6S] | 662 ng·h/mL | 54.9 ng/mL | 6.67 h | 4.31 h | – | < 10 nM | – | < 10 nM | – | – | < 100 nM | –
9 | CC(=O)c1c(C)c2cnc(Nc3cc(C)c4c(c3)OC[C@@H]3CN(C5CCN(C)CC5)CCN43)nc2n(C2CCCC2)c1=O [Compound 8S] | – | – | – | – | – | < 100 nM | – | < 20 nM | – | – | < 500 nM | –
10 | CC(=O)c1c(C)c2cnc(Nc3cc(F)c4c(c3)OC[C@@H]3CN(C5CCN(C)CC5)CCN43)nc2n(C2CCCC2)c1=O [Compound 9S] | 697 ng·h/mL | 42.5 ng/mL | 12 h | 15.6 h | – | < 50 nM | – | < 10 nM | – | – | < 500 nM | –
11 | CC(=O)c1c(C)c2cnc(Nc3ccc4c(c3)OC[C@@H]3CN(C5CN(C(C)=O)C5)CCN43)nc2n(C2CCCC2)c1=O [Compound 11S] | 3000 ng·h/mL | 424 ng/mL | 2 h | 2.61 h | – | < 20 nM | – | < 10 nM | < 10 nM | – | < 100 nM | –
12 | CC(=O)c1c(C)c2cnc(Nc3ccc4c(c3)OC[C@@H]3CN(C5CN(C6CC6)C5)CCN43)nc2n(C2CCCC2)c1=O [Compound 12S] | – | – | – | – | – | < 10 nM | – | < 10 nM | – | – | < 100 nM | –
13 | CC(=O)c1c(C)c2cnc(Nc3ccc4c(c3)OC[C@@H]3CN(C5COC5)CCN43)nc2n(C2CCCC2)c1=O [Compound 13S] | 860 ng·h/mL | 169 ng/mL | 1.83 h | 1.95 h | – | < 20 nM | – | < 10 nM | – | – | < 100 nM | –
14 | CC(=O)c1c(C)c2cnc(Nc3ccc4c(c3)OC[C@@H]3CN(C5CN(S(C)(=O)=O)C5)CCN43)nc2n(C2CCCC2)c1=O [Compound 14S] | 2030 ng·h/mL | 442 ng/mL | 1.33 h | 1.84 h | – | < 20 nM | – | < 10 nM | – | – | < 100 nM | –
15 | CC(=O)c1c(C)c2cnc(Nc3ccc4c(c3)OC[C@@H]3CN(C5CC(F)(F)C5)CCN43)nc2n(C2CCCC2)c1=O [Compound 15S] | – | – | – | – | – | – | – | < 50 nM | < 100 nM | – | < 1000 nM | –
16 | CC(=O)c1c(C)c2cnc(Nc3ccc4c(c3)OC[C@@H]3CN(C5CCN(CC(F)(F)F)CC5)CCN43)nc2n(C2CCCC2)c1=O [Compound 16S] | – | – | – | – | – | – | – | < 10 nM | – | – | < 500 nM | –
17 | CC(=O)c1c(C)c2cnc(Nc3ccc4c(c3)OC[C@@H]3CN(C5CCN(CC#N)CC5)CCN43)nc2n(C2CCCC2)c1=O [Compound 17S] | – | – | – | – | – | – | – | < 10 nM | – | – | < 100 nM | –
18 | CC(=O)c1c(C)c2cnc(Nc3ccc4c(c3)OC[C@@H]3CN(C5CCC5)CCN43)nc2n(C2CCCC2)c1=O [Compound 18S] | – | – | – | – | – | – | – | < 10 nM | – | – | < 500 nM | –
19 | CC(=O)c1c(C)c2cnc(Nc3ccc4c(c3)N3CCN(C5CCN(C)CC5)C[C@H]3CO4)nc2n(C2CCCC2)c1=O [Compound 19S] | – | – | – | – | – | – | – | < 100 nM | – | – | < 500 nM | –
20 | CC(=O)c1c(C)c2cnc(Nc3ccc4c(c3)N3CCN(C5CCNCC5)C[C@H]3CO4)nc2n(C2CCCC2)c1=O [Compound 20S] | – | – | – | – | – | – | – | – | – | – | < 500 nM | –
21 | CC(=O)c1c(C)c2cnc(Nc3ccc4c(c3)N3CCN(C5CCN(C(C)=O)CC5)C[C@H]3CO4)nc2n(C2CCCC2)c1=O [Compound 21S] | – | – | – | – | – | – | – | – | – | – | < 500 nM | –
22 | CC(=O)c1c(C)c2cnc(Nc3ccc4c(c3)OCC3CNCCN43)nc2n(C2CCCC2)c1=O (centres unmarked) [Ref-B, reference compound] | 108 ng·h/mL | 13.9 ng/mL | 3.33 h | 6.71 h | – | – | – | – | – | – | – | –
